Source: PubChem BioAssay (NCI)
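48-hour exposure; five concentrations; linearly interpolated endpoints. The concentration for 50% growth inhibition is given as GI50. TGI is the concentration that stops growth completely.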

Assays:
Test in all cases: NCI-60 cell line screen, 48 h
[1] = system: HT29 colon
[2] = system: M14 melanoma
[3] = system: SK-MEL-28 melanoma
[4] = system: OVCAR-3 ovarian
[5] = system: NCI-H23 lung
[6] = system: SF-268 CNS
[7] = system: OVCAR-5 ovarian
[8] = system: CAKI-1 renal
[9] = system: SNB-19 CNS
[10] = system: TK-10 renal
[11] = system: MOLT-4 leukemia
[12] = system: BT-549 breast
[13] = system: SF-295 CNS
[14] = system: MDA-MB-231 breast
[15] = system: NCI-H460 lung
[16] = system: IGROV1 ovarian
[17] = system: UACC-62 melanoma
[18] = system: HOP-92 NSCLC
[19] = system: MALME-3M melanoma
[20] = system: HS 578T breast
[21] = system: UO-31 renal
[22] = system: RXF 393 renal
[23] = system: SK-MEL-5 melanoma
[24] = system: MCF7 breast
[25] = system: SR leukemia
[26] = system: U251 CNS
[27] = system: SK-OV-3 ovarian
[28] = system: CCRF-CEM leukemia
[29] = system: ACHN renal
[30] = system: LOX IMVI melanoma
[31] = system: HOP-62 NSCLC
[32] = system: A549 NSCLC
[33] = system: NCI-H522 lung
[34] = system: EKVX NSCLC
[35] = system: SF-539 CNS
[36] = system: NCI-H226 lung
[37] = system: NCI/ADR-RES ovarian
[38] = system: UACC-257 melanoma
[39] = system: SN12C renal
[40] = system: OVCAR-8 ovarian
[41] = system: HL-60(TB) leukemia
[42] = system: A498 renal
[43] = system: PC-3 prostate
[44] = system: SNB-75 CNS
[45] = system: MDA-MB-435
[46] = system: HCT-15 colon
[47] = system: RPMI-8226 leukemia
[48] = system: HCT-116 colon
[49] = system: SK-MEL-2 melanoma
[50] = system: DU-145 prostate
[51] = system: KM12 colon
[52] = system: K-562 leukemia
[53] = system: 786-0 renal

SMILES: Cc1sc2c(c1C)C(c1ccc(Cl)cc1)=N[C@@H](CC(=O)NCCCCCNC(=O)COc1ccc(C3CCC(=O)NC3=O)cc1)c1nnc(C)n1-2 (some centres undefined)
- GI50 [1]: 0.95 µM
- TGI [1]: > 100 µM
- GI50 [2]: 1.01 µM
- TGI [2]: > 100 µM
- GI50 [3]: 0.901 µM
- TGI [3]: > 100 µM
- GI50 [4]: 2.3 µM
- TGI [4]: > 100 µM
- GI50 [5]: 13.1 µM
- TGI [5]: > 100 µM
- GI50 [6]: 0.629 µM
- TGI [6]: > 100 µM
- GI50 [7]: 0.795 µM
- TGI [7]: > 100 µM
- GI50 [8]: 0.845 µM
- TGI [8]: > 100 µM
- GI50 [9]: 0.438 µM
- TGI [9]: > 100 µM
- GI50 [10]: 1.7 µM
- TGI [10]: > 40.9 µM
- GI50 [11]: 0.113 µM
- TGI [11]: > 100 µM
- GI50 [12]: 0.0547 µM
- TGI [12]: 0.541 µM
- GI50 [13]: 3.11 µM
- TGI [13]: > 100 µM
- GI50 [14]: 0.0908 µM
- TGI [14]: > 100 µM
- GI50 [15]: 47.4 µM
- TGI [15]: > 100 µM
- GI50 [16]: 0.269 µM
- TGI [16]: > 100 µM
- GI50 [17]: 0.429 µM
- TGI [17]: > 100 µM
- GI50 [18]: 0.0619 µM
- GI50 [19]: 0.788 µM
- TGI [19]: > 100 µM
- GI50 [20]: 0.154 µM
- TGI [20]: > 100 µM
- GI50 [21]: 3.2 µM
- TGI [21]: 53.9 µM
- GI50 [22]: 2.17 µM
- TGI [22]: > 100 µM
- GI50 [23]: 0.345 µM
- TGI [23]: 3.45 µM
- GI50 [24]: 0.0397 µM
- TGI [24]: > 100 µM
- GI50 [25]: 0.0645 µM
- TGI [25]: > 100 µM
- GI50 [26]: 3.09 µM
- TGI [26]: > 100 µM
- GI50 [27]: 3.31 µM
- TGI [27]: > 100 µM
- GI50 [28]: 0.0519 µM
- TGI [28]: > 100 µM
- GI50 [29]: 20.7 µM
- TGI [29]: > 100 µM
- GI50 [30]: 1.48 µM
- TGI [30]: > 42.9 µM
- GI50 [31]: 0.644 µM
- TGI [31]: > 100 µM
- GI50 [32]: 3.96 µM
- TGI [32]: > 100 µM
- GI50 [33]: 4.37 µM
- TGI [33]: > 100 µM
- GI50 [34]: 2.5 µM
- TGI [34]: > 100 µM
- GI50 [35]: 0.439 µM
- TGI [35]: > 100 µM
- GI50 [36]: 0.476 µM
- TGI [36]: > 100 µM
- GI50 [37]: > 100 µM
- TGI [37]: > 100 µM
- GI50 [38]: > 26.3 µM
- TGI [38]: > 100 µM
- GI50 [39]: 0.293 µM
- TGI [39]: > 100 µM
- GI50 [40]: 0.298 µM
- TGI [40]: > 100 µM
- TGI [41]: 0.0995 µM
- GI50 [42]: 6.27 µM
- TGI [42]: > 100 µM
- GI50 [43]: 0.134 µM
- TGI [43]: > 100 µM
- GI50 [44]: < 0.0189 µM
- TGI [44]: 0.389 µM
- GI50 [45]: 0.171 µM
- TGI [45]: > 100 µM
- GI50 [46]: 3.77 µM
- TGI [46]: > 89.5 µM
- GI50 [47]: 0.038 µM
- TGI [47]: 1.12 µM
- GI50 [48]: 1.69 µM
- TGI [48]: > 100 µM
- GI50 [49]: 0.371 µM
- TGI [49]: > 100 µM
- GI50 [50]: > 100 µM
- TGI [50]: > 100 µM
- GI50 [51]: 0.483 µM
- TGI [51]: > 100 µM
- GI50 [52]: 0.565 µM
- TGI [52]: > 100 µM
- GI50 [53]: 2.08 µM
- TGI [53]: > 100 µM
